Measurements reported in patent publication US20100021895A1, “Vectors for Inducing Homozygous Mutations and Methods of Using Same” (priority 2006, published 2010).

Legend:
[1] = system: mouse embryonic stem cell clones, each containing a neomycin resistance gene (Neo) inserted by the GTR1.3 gene trap retrovirus; experiment: Carcinogen-induced LOH: frequency of colony formation in 2.0 mg/ml G418; type: cell-based; settings: for fold increase of frequency of colony formation: 2 mg/ml G418 0.5 mM MNU
Method: Carcinogen-induced LOH was measured in a panel of 53 mouse embryonic stem cell clones, each containing a neomycin resistance gene (Neo) inserted into a different cellular gene (FIG. 9) by the GTR1.3 gene trap retrovirus. Gene entrapment by GTR1.3 involves selection for inserted Neo sequences that can splice to the 3′ ends of cellular genes (Lin et al.,). The disrupted genes were identified by sequencing Neo-gene fusion transcripts and were localized on the mouse genome. Previous studies have shown that cells homozygous for GTR1.3-induced mutations can be selected from heterozygous cells simply by selecting for resistance to higher concentrations of G418, a method first shown to select for homozygous mutations induced by gene targeting (15). Mitotic recombination appears to be the preferred mechanism of spontaneous LOH involving Neo genes inserted in ES cells (17) and LOH involving other genes and cell types in vivo (12, 13). LOH doubles the number of Neo genes per cell and thus allows moderately resistant cells to acquire resistance to higher concentrations of G418. The frequencies of spontaneous LOH measured at the 53 different sites ranged from 1.3×10^−5 to 1.2×10^−4 (Table 3), similar to those reported for other inserted neomycin resistance genes (15, 17) in ES cells and for loci such as TK and APRT in other cell types (12, 13).
A variety of chemical agents were tested for their ability to enhance the frequencies at which mutant cells survive in 2.0 mg/ml G418. Methyl-nitrosurea (MNU) is an alkylating agent that produces a variety of mono-methylated DNA adducts, hydroxyurea (HU) stalls DNA replication complexes, doxorubicin interferes with DNA synthesis, methothrexate is a competitive inhibitor of dihydrofolate reductase but is not genotoxic, diepoxybutane and mitomycin C induce inter-strand DNA crosslinks, UV irradiation causes intra- and inter-strand pyrimidine dimmers, and ethidium bromide intercalates between DNA strands to damage DNA (For additional information about these agents see http://toxnet.nlm.nih.gov and http://lisntweb.swan.ac.uk/cmgt/index.htm). […] The fold-increase for MNU and HU ranged from 39-123 and 18-68, respectively (Table 3). The optimal concentrations of each agent to stimulate colony formation with minimal toxicity (<5% loss of cell viability) were determined in advance (FIG. 13). […] Each of these agents was tested two or more times on at least 25 entrapment lines.
Serially diluted cells were plated onto 150 mm plates containing drug-free media and allowed to attach overnight. Unattached cells were removed and media containing the indicated concentrations of methyl-nitrosourea, hydroxyurea, ethidium bromide, doxorubicin, methotrexate, diepoxybutane, or mitomycin C was put onto cells for 4 hours (or cells were exposed to ultraviolet light in the absence of media and allowed to recover in drug-free media for 4 hours). Cells were then rinsed twice with drug-free media and selection media containing 0.0, 0.3, or 2.0 mg/ml G418 was put onto cells. After 12 days of selection, the number of colonies surviving was counted and the frequency of colony formation was determined by dividing the number of colonies obtained from 2.0 mg/ml G418 selection to that obtained from parallel experiments with 0.3 mg/ml G418 selection. TK gene loss was assessed following selection in media containing 2 μg/ml gancyclovir.
Table 3. The frequency of colony formation in high concentrations of G418. The frequency of colony formation is listed for all 53 clones examined. Frequency was determined by dividing the number of colonies surviving 2.0 mg/ml G418 selection to the number surviving parallel experiments with 0.3 mg/ml G418 selection, and is the average of at least 3 independent experiments for each clone. Standard deviations, which ranged from 5 to 70% of the mean values, have been omitted for clarity. […]

[2] = system: HSV thymidine kinase (TK) gene in cells containing an entrapment mutation in the Hesx1 gene; experiment: TK gene loss, selection in gancyclovir; type: cell-based, mouse

CN(N=O)C(N)=O [MNU, methyl-nitrosourea]
number of colonies surviving in high G418 ([1]; 0.5 mM MNU or 0.25 mM HU (FIG. 10)): dramatically increased
fold-increase of colonies surviving in high G418, range over clones ([1]; 0.5 mM MNU, Table 3 clones): 39-123 fold
fold increase of frequency of colony formation ([1]; clone b2p1-a5 (12C3)): (+61-fold)
fold increase of frequency of colony formation ([1]; clone b2p1-a9 (2H1)): (+53-fold)
fold increase of frequency of colony formation ([1]; clone b2p1-b4 (9E1)): (+53-fold)
fold increase of frequency of colony formation ([1]; clone b2p1-b9 (4B1)): (+59-fold)
fold increase of frequency of colony formation ([1]; clone b2p1-c6 (19A)): (+39-fold)
fold increase of frequency of colony formation ([1]; clone b2p1-d3 (19C1)): (+41-fold)
fold increase of frequency of colony formation ([1]; clone b2p1-d8 (4D2.3)): (+52-fold)
fold increase of frequency of colony formation ([1]; clone b2p1-d9 (7E3)): (+75-fold)
fold increase of frequency of colony formation ([1]; clone b2p1-d10 (9A1)): (+76-fold)
fold increase of frequency of colony formation ([1]; clone b2p1-e3 (4D2.3)): (+54-fold)
fold increase of frequency of colony formation ([1]; clone b2p1-e10 (19C1)): (+54-fold)
fold increase of frequency of colony formation ([1]; clone b2p1-f3 (17E1.3)): (+51-fold)
fold increase of frequency of colony formation ([1]; clone b2p1-f10 (3F2.1)): (+91-fold)
fold increase of frequency of colony formation ([1]; clone b2p1-f12 (1H5)): (+77-fold)
fold increase of frequency of colony formation ([1]; clone b2p1-h1 (7A2)): (+63-fold)
fold increase of frequency of colony formation ([1]; clone b2p1-h5 (1H5)): (+75-fold)
fold increase of frequency of colony formation ([1]; clone b2p1-h8 (6A3.3)): (+68-fold)
fold increase of frequency of colony formation ([1]; clone b3p1-h1 (18E2)): (+55-fold)
fold increase of frequency of colony formation ([1]; clone b3p3-a4 (4A5)): (+78-fold)
fold increase of frequency of colony formation ([1]; clone b3p3-a9 (4A5)): (+49-fold)
fold increase of frequency of colony formation ([1]; clone b3p3-b6 (3F1)): (+60-fold)
fold increase of frequency of colony formation ([1]; clone b3p3-c8 (14A3)): (+73-fold)
fold increase of frequency of colony formation ([1]; clone b3p3-c12 (5G2)): (+29-fold)
fold increase of frequency of colony formation ([1]; clone b3p3-d4 (1C3)): (+43-fold)
fold increase of frequency of colony formation ([1]; clone b3p3-d8 (1C2)): (+123-fold)
fold increase of frequency of colony formation ([1]; clone b3p3-d9 (4E2)): (+89-fold)
fold increase of frequency of colony formation ([1]; clone b3p3-g6 (10C2)): (+59-fold)
fold increase of frequency of colony formation ([1]; clone b3p3-g10 (4E1)): (+58-fold)
fold increase of frequency of colony formation ([1]; clone b3p3-h2 (19C1)): (+73-fold)
fold increase of frequency of colony formation ([1]; clone b3p3-h4 (5E2)): (+70-fold)
fold increase of frequency of colony formation ([1]; clone b3p3-h8 (19A)): (+105-fold)
fold increase of frequency of colony formation ([1]; clone b3p4-a1 (4A4)): (+69-fold)
fold increase of frequency of colony formation ([1]; clone b3p4-a5 (3B)): (+47-fold)
fold increase of frequency of colony formation ([1]; clone b3p4-b1 (3A2)): (+45-fold)
fold increase of frequency of colony formation ([1]; clone b3p4-b2 (11B1.3)): (+54-fold)
fold increase of frequency of colony formation ([1]; clone b3p4-b8 (4C6)): (+63-fold)
fold increase of frequency of colony formation ([1]; clone b3p4-b12 (3A1)): (+52-fold)
fold increase of frequency of colony formation ([1]; clone b3p4-c1 (17B3)): (+69-fold)
fold increase of frequency of colony formation ([1]; clone b3p4-c2 (8C3)): (+76-fold)
fold increase of frequency of colony formation ([1]; clone b3p4-c9 (15F2)): (+39-fold)
fold increase of frequency of colony formation ([1]; clone b3p4-c12 (17E2)): (+74-fold)
fold increase of frequency of colony formation ([1]; clone b3p4-d10 (14E5)): (+88-fold)
fold increase of frequency of colony formation ([1]; clone b3p4-d12 (1C3)): (+82-fold)
fold increase of frequency of colony formation ([1]; clone b3p4-e1 (2G3)): (+65-fold)
fold increase of frequency of colony formation ([1]; clone b3p4-e3 (15D3)): (+73-fold)
fold increase of frequency of colony formation ([1]; clone b3p4-e7 (12C1)): (+43-fold)
fold increase of frequency of colony formation ([1]; clone b3p4-f2 (4E1)): (+55-fold)
fold increase of frequency of colony formation ([1]; clone b3p4-f6 (7E3)): (+48-fold)
fold increase of frequency of colony formation ([1]; clone b3p4-f10 (8A4)): (+81-fold)
fold increase of frequency of colony formation ([1]; clone b3p4-g3 (1C3)): (+81-fold)
fold increase of frequency of colony formation ([1]; clone b3p4-g8 (10C1)): (+75-fold)
fold increase of frequency of colony formation ([1]; clone b3p4-g9 (2C2)): (+65-fold)
fold increase of frequency of colony formation ([1]; clone b3p4-h11 (8A1.1)): (+65-fold)
survival of mutant ES cells in media containing 2.0 mg/ml G418 ([1]; ES cells heterozygous for Xrcc5 entrapment mutation, 4 hours with 0.5 mM methyl-nitrosourea, 0.25 mM hydroxyurea or 100 ng/ml diepoxybutane): enhances the survival
overall extent of LOH induced ([1]; single exposure to non-toxic levels): ~1 % of the genome
Ratio of Freq. TK loss ([2]; Table 2, C8TK1mN and C8TK1sN, Treatment none): 2.6
Ratio of Freq. TK loss ([2]; Table 2, C8TK1sN and C8TK1mN, Treatment MNU): 1.8
Freq. TK loss ([2]; Table 4, clone printed C8TK1mN (EL LOH induced by MNU), Treatment MNU): 4.5 × 10^−4
Freq. TK loss ([2]; Table 4, clone printed C8TK1mN (EL LOH induced by MNU, TK+ EL−/−), Treatment none): 1.3 × 10^−5
Freq. TK loss ([2]; Table 4, clone printed C8TK1sN (Spont. EL LOH), Treatment MNU): 2.9 × 10^−4
Ratio of Freq. TK loss ([2]; Table 4, printed C8TK1mN and C8TK1sN, Treatment none): 2.4
Ratio of Freq. TK loss ([2]; Table 4, printed C8TK1sN and C8TK1mN, Treatment MNU): 1.6
